Measured values from patent US8071141B2, “Compositions for preventing or ameliorating multiple risk factor syndromes” (priority 2000, dated 2011).
Structures can show the parent of a compound that is named as a salt. Where two headings read alike, the source gives them in different places.

Columns and labels:
[1] = system: spontaneously hypertensive rats (SHR); test: Test Example 5: efficacy in spontaneously hypertensive rats; format: in vivo; conditions: licorice extract (Preparation Example 3) 300 mg/kg/day or enalapril maleate 20 mg/kg/day orally
Experimental: As a positive control, enalapril maleate, an antihypertensive agent, was used.
During the period, the mice had free access to food (CRF-1, Oriental Yeast Co.) and water.
On the day immediately preceding the start of treatment and on day 7, day 14, and day 21 of treatment, the blood pressure was measured at the tail artery using a non-invasive automatic hemomanometer (BP-97A, Softron Co., Ltd.). The measurement of blood pressure was performed before each administration of the sample.

KK-Ay mice [2] = test: Test Example 4: ameliorating effect on diabetes mellitus in type II diabetic model mice; format: in vivo; conditions: pioglitazone 0.02% or licorice extract (Preparation Example 2) 0.2% in food
Excerpt: As a positive control, the antidiabetic agent pioglitazone was used.
The mice had free access to food for 7 days. […] For the determination of blood glucose, the simple blood glucose test Glutest Ace (Sanwa Kagaku Kenkyusho Co., Ltd.) was used.

KK-Ay mice [3] = test: Test Example 9: efficacy of clove extract in type II diabetic model mice; format: in vivo; conditions: pioglitazone 0.02% or clove extract (Preparation Example 7) 0.5% in food
Excerpt: (§1) As a positive control, the antidiabetic agent pioglitazone was used. […] As pioglitazone, Actos Tab.

KK-Ay mice [4] = test: Test Example 3: preventing effect on diabetes mellitus in type II diabetic model mice-2; format: in vivo; conditions: pioglitazone 0.04% or licorice extract (Preparation Example 2) 0.2% in food
Excerpt: Regarding troglitazone, Noscal Tab.
As a positive control, the antidiabetic agent pioglitazone was used. As pioglitazone, Actos Tab. […] For the determination of blood glucose, the simple blood glucose test Glutest Ace (Sanwa Kagaku Kenkyusho Co., Ltd.) was used.

KK-Ay mice [5] = test: Test Example 7: efficacy of turmeric extract in type II diabetic model mice; format: in vivo; conditions: pioglitazone 0.04% or turmeric extract (Preparation Example 5) 0.5% in food
Excerpt: as §1

KK-Ay mice [6] = conditions: for Blood glucose: troglitazone 0.2% or licorice extract (Preparation Example 1) 0.15% in food
Experimental: As a positive control, the antidiabetic agent troglitazone was used.
Regarding troglitazone, Noscal Tab. 200 (200 mg of troglitazone in each tablet; Sankyo Co., Ltd.) was pulverized in an agate mortar and added to the normal food at a final concentration of 0.2%.
During the feeding period, small samples of blood were taken weekly from the mouse tail vein and the blood glucose was determined with the simple blood glucose test Novo Assist Plus (Novo Nordisk Pharma Ltd.).
At the end of the feeding period, the mice were fasted overnight and the abdomen was opened under ether anesthesia.
The blood was withdrawn from the abdominal aorta and the liver was excised and weighed. In addition, Sogo Ikagaku Kenkyusho Co., Ltd. was entrusted with analyses for serum total cholesterol (T-CHO), triglyceride (TG), free fatty acid (NEFA), GOT, GPT, LAP, cholinesterase (ChoE), total protein (TP-S), albumin (ALB-S), and A/G ratio.

[7] = end of 4-week feeding, overnight fast, troglitazone 0.2% or licorice extract 0.15% in food

Structure (SMILES): CCOC(=O)[C@H](CCc1ccccc1)N[C@@H](C)C(=O)N1CCC[C@H]1C(=O)O [Enalapril maleate, enalapril maleate]
- Blood pressure ([1]; Before start, tail artery): 111 ± 2.5 mmHg
- Blood pressure ([1]; Day 7, tail artery): 118 ± 3.2 mmHg
- Blood pressure ([1]; Day 14, tail artery): 119 ± 3.4 mmHg
- Blood pressure ([1]; Day 21, tail artery): 134 ± 3.1 mmHg

Structure (SMILES): CCc1ccc(CCOc2ccc(CC3SC(=O)NC3=O)cc2)nc1 (stereo not shown) [Pioglitazone, pioglitazone]
- Blood glucose (KK-Ay mice [2]; Day 4): 168 ± 49 mg/dL
- Blood glucose (KK-Ay mice [2]; Day 7): 143 ± 16 mg/dL
- Blood glucose (KK-Ay mice [2]; Start, hyperglycemic 15-week-old mice): 378 ± 36 mg/dL
- Blood glucose (KK-Ay mice [3]; 1 week): 208 ± 21 mg/dL
- Blood glucose (KK-Ay mice [3]; 2 week): 192 ± 17 mg/dL
- Blood glucose (KK-Ay mice [3]; 3 week): 164 ± 16 mg/dL
- Blood glucose (KK-Ay mice [3]; Start): 156 ± 16 mg/dL
- Blood glucose (KK-Ay mice [4]; 1 week): 163 ± 23 mg/dL
- Blood glucose (KK-Ay mice [4]; 2 week): 182 ± 9 mg/dL
- Blood glucose (KK-Ay mice [4]; 3 week): 167 ± 18 mg/dL
- Blood glucose (KK-Ay mice [4]; 4 week): 153 ± 21 mg/dL
- Blood glucose (KK-Ay mice [4]; Start): 151 ± 9 mg/dL
- Blood glucose (KK-Ay mice [5]; 1 week): 163 ± 23 mg/dL
- Blood glucose (KK-Ay mice [5]; 2 week): 182 ± 9 mg/dL
- Blood glucose (KK-Ay mice [5]; 3 week): 166 ± 18 mg/dL
- Blood glucose (KK-Ay mice [5]; 4 week): 153 ± 21 mg/dL
- Blood glucose (KK-Ay mice [5]; Start): 151 ± 9 mg/dL

Structure (SMILES): Cc1c(C)c2c(c(C)c1O)CCC(C)(COc1ccc(CC3SC(=O)NC3=O)cc1)O2 (stereo not shown) [Troglitazone, troglitazone]
- Blood glucose (KK-Ay mice [6]; 1 week): 217 ± 74 mg/dL
- Blood glucose (KK-Ay mice [6]; 2 week): 173 ± 40 mg/dL
- Blood glucose (KK-Ay mice [6]; 3 week): 304 ± 77 mg/dL
- Blood glucose (KK-Ay mice [6]; 4 week): 246 ± 51 mg/dL
- Blood glucose (KK-Ay mice [6]; Start): 145 ± 11 mg/dL
- NEFA (serum free fatty acid) (KK-Ay mice [6]; [7]): 1750 ± 302 μEq/L
- T-CHO (serum total cholesterol) (KK-Ay mice [6]; [7]): 163 ± 7 mg/dL
- TG (serum triglyceride) (KK-Ay mice [6]; [7]): 39 ± 14 mg/dL
- A/G ratio (KK-Ay mice [6]; mouse, in vivo): 0.98 ± 0.05
- ALB-S (albumin) (KK-Ay mice [6]; mouse, in vivo): 2.50 ± 0.12 g/dL
- GOT (KK-Ay mice [6]; mouse, in vivo): 121 ± 26 IU/L
- GPT (KK-Ay mice [6]; mouse, in vivo): 70.5 ± 26.2 IU/L
- LAP (KK-Ay mice [6]; mouse, in vivo): 60.8 ± 6.1 IU/L
- TP-S (total protein) (KK-Ay mice [6]; mouse, in vivo): 5.13 ± 0.17 g/dL
- elevation in GOT compared with the non-treatment group (KK-Ay mice [6]; mouse, in vivo): 13%
- ChoE (cholinesterase) (KK-Ay mice [6]; serum, end of 4-week feeding, troglitazone 0.2% or licorice extract 0.15% in food): 153 ± 9 IU/L
